Reference: patent publication US8247211B2, “Glycopeptide antibiotics” (American Cyanamid Company, priority 2001, dated 2012)
Converted amounts (≈) assume the structure as drawn.

How the values were obtained:
[1] = Anatomic pathology (heart and kidney histopathology) in mice; type: in vivo, CD-1 mice; settings: 20 mg/kg intravenously daily for 9 days, microscopic histopathology on day 10
Method: 20-day-old CD-1 mice were divided into a vehicle control group (5 mice) and a treatment group (5 mice). Samples of glycopeptide antibiotics were administered at 20 mg/kg intravenously daily for 9 days.
Samples of tissues from necropsied mice were formalin-fixed, paraffin-embedded, sectioned, stained with hematoxylin and eosin, and examined microscopically. Histopathologic findings were recorded. These findings were subjectively graded on a scale corresponding to slight, mild, moderate, marked and severe as compared to untreated controls.

[2] = tested on: Staphylococcus aureus-SMITH (GC 4543); assay: Acute lethal infection in mice (ED50); type: in vivo; settings: female CD-1 mice, intraperitoneal challenge, intravenous dose 30 min. after infection, 7 day survival ratios
Summary of the method: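 Groups of five female CD-1 mice per dose got intravenous antibiotic in saline or 5% dextrose half an hour after intraperitoneal infection sufficient to kill controls within 24-48 hr. Seven-day survival data from three experiments were combined to derive ED50.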

[3] = tested on: Streptococcus sp.; assay: In vitro antibacterial evaluation: minimum inhibitory concentration (MIC), broth dilution method; type: cell-based; settings: broth dilution, 5×10^5 CFU/mL, 18 hours at 35° C.
Summary of the method: (§1)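 Broth dilution per NCCLS M7-A2 in Muller-Hinton II […], inoculum 5×10^5 CFU/mL, antibiotic tested over 64-0.06 μg/mL. MIC is taken as the lowest concentration that inhibits growth. Panel includes recent clinical isolates resistant to methicillin, penicillin and/or vancomycin.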

[4] = tested on: Staphylococcus sp.; assay: as above; type: cell-based; settings: for MIC Staphylococcus aureus (ATCC 29213): strain ATCC 29213; for MIC Staphylococcus aureus (GC 1131): strain GC 1131; for MIC Staphylococcus aureus (GC 3051): strain GC 3051; for MIC Staphylococcus aureus (GC 3053): strain GC 3053; for MIC Staphylococcus aureus (GC 4541): strain GC 4541; for MIC Staphylococcus aureus (GC 4542): strain GC 4542; for MIC Staphylococcus aureus-SMITH (GC 4543): strain GC 4543; for MIC Staphylococcus aureus (GC 4544): strain GC 4544; for MIC Staphylococcus aureus (GC 4545): strain GC 4545; for MIC Staphylococcus haemolyticus (GC 4546): strain GC 4546; for MIC Coagulase Negative Staphylococcus (GC 4547): strain GC 4547; for MIC Coagulase Negative Staphylococcus (GC 4548): strain GC 4548; for MIC Coagulase Negative Staphylococcus (GC 4549): strain GC 4549; for MIC Coagulase Negative Staphylococcus (GC 4551): strain GC 4551; for MIC Coagulase Negative Staphylococcus (GC 6257): strain GC 6257
Summary of the method: as §1

[5] = tested on: Escherichia coli; assay: as above; type: cell-based; settings: 5×10^5 CFU/mL, 18 hours at 35° C.
Summary of the method: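 Inoculum: 5×10^5 CFU/mL. Range: 64-0.06 μg/mL. Medium: Muller-Hinton II […]; NCCLS M7-A2 broth dilution. Endpoint: lowest concentration inhibiting growth. Strains include methicillin-, penicillin- and/or vancomycin-resistant clinical isolates.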

[6] = tested on: Enterococcus sp.; assay: as above; type: cell-based; settings: broth dilution, 5×10^5 CFU/mL, 18 hours at 35° C.
Summary of the method: as §1

[7] = broth dilution, 18 hours at 35° C.

CN=C1N(C)CC(C(O)C2NC(=O)C(Cc3ccc(OC4OC(CO)C(OC5OC(CO)C(O)C(O)C5O)C(O)C4O)cc3)NC(=O)C(C(C)c3ccccc3)NC(=O)CNC(=O)C(CO)NC(=O)C(C(O)C3CN(C)C(=NC)N3C3OC(CO)C(O)C(O)C3O)NC2=O)N1C (stereo not drawn) [Example 64, Cyclo[glycyl-β-methylphenylalanyl-O-(4-O-hexopyranosylhexopyranosyl)tyrosyl-3-(1,3-dimethyl-2-(methylimino)imidazolidin-4-yl)seryl-3-[3-hexopyranosyl-1-methyl-2-(methylimino)imidazolidin-4-yl]-serylseryl]]
Anatomical Pathology (Day 10), Heart [1]: 0
Anatomical Pathology (Day 10), Kidney [1]: 0
median effective dose (ED50), Staphylococcus aureus-SMITH (GC 4543) [2]: >8

CC(c1ccccc1)C1NC(=O)CNC(=O)C(CO)NC(=O)C(C(O)C2CNC(=N)N2C2OC(CO)C(O)C(O)C2O)NC(=O)C(C(O)C2CNC(=N)N2)NC(=O)C(Cc2ccc(OC3OC(CO)C(OC4OC5COC(Cc6ccc(Cl)cc6)OC5C(O)C4O)C(O)C3O)cc2)NC1=O (stereo not drawn) [Example 120, Cyclo[glycyl-β-methylphenylalanyl-O-[4-O-[4,6-O-(4-chlorophenethylidene)hexopyranosyl]-hexopyranosyl]tyrosyl-3-(2-iminoimidazolidin-4-yl)seryl-3-(3-hexopyranosyl-2-iminoimidazolidin-4-yl)serylseryl]]
MIC Streptococcus agalactiae (GC 4564) [3]: <0.5 mg/L
MIC Streptococcus pneumoniae (GC 1894) [3]: <0.5 mg/L
MIC Streptococcus pneumoniae (GC 4565) [3]: <0.5 mg/L
MIC Streptococcus pneumonine (ATCC 6301) [3]: <0.5 mg/L
MIC Streptococcus pyogenes (GC 4563) [3]: <0.5 mg/L
MIC Staphylococcus aureus (ATCC 29213) [4]: <0.5 mg/L
MIC Staphylococcus aureus (ATCC 29213) [4, 7]: <0.5 mg/L
MIC Staphylococcus aureus (GC 1131) [4]: <0.5 mg/L
MIC Staphylococcus aureus (GC 1131) [4, 7]: <0.5 mg/L
MIC Staphylococcus aureus (GC 3051) [4]: <0.5 mg/L
MIC Staphylococcus aureus (GC 3051) [4, 7]: <0.5 mg/L
MIC Staphylococcus aureus (GC 3053) [4]: 1 mg/L (≈ 0.698 µM)
MIC Staphylococcus aureus (GC 3053) [4, 7]: 1 mg/L (≈ 0.698 µM)
MIC Staphylococcus aureus (GC 4541) [4]: <0.5 mg/L
MIC Staphylococcus aureus (GC 4541) [4, 7]: <0.5 mg/L
MIC Staphylococcus aureus (GC 4542) [4]: <0.5 mg/L
MIC Staphylococcus aureus (GC 4542) [4, 7]: <0.5 mg/L
MIC Staphylococcus aureus-SMITH (GC 4543) ([4]; 18 hours at 35° C.): <0.5 mg/L
MIC Staphylococcus aureus-SMITH (GC 4543) [4, 7]: <0.5 mg/L
MIC Staphylococcus aureus (GC 4544) [4]: <0.5 mg/L
MIC Staphylococcus aureus (GC 4544) [4, 7]: <0.5 mg/L
MIC Staphylococcus aureus (GC 4545) [4]: <0.5 mg/L
MIC Staphylococcus aureus (GC 4545) [4, 7]: <0.5 mg/L
MIC Staphylococcus haemolyticus (GC 4546) [4]: <0.5 mg/L
MIC Staphylococcus haemolyticus (GC 4546) [4, 7]: <0.5 mg/L
MIC Coagulase Negative Staphylococcus (GC 4547) [4]: 1 mg/L (≈ 0.698 µM)
MIC Coagulase Negative Staphylococcus (GC 4547) [4, 7]: 1 mg/L (≈ 0.698 µM)
MIC Coagulase Negative Staphylococcus (GC 4548) [4]: <0.5 mg/L
MIC Coagulase Negative Staphylococcus (GC 4548) [4, 7]: <0.5 mg/L
MIC Coagulase Negative Staphylococcus (GC 4549) [4]: <0.5 mg/L
MIC Coagulase Negative Staphylococcus (GC 4549) [4, 7]: <0.5 mg/L
MIC Coagulase Negative Staphylococcus (GC 4551) [4]: <0.5 mg/L
MIC Coagulase Negative Staphylococcus (GC 4551) [4, 7]: <0.5 mg/L
MIC Coagulase Negative Staphylococcus (GC 6257) [4]: <0.5 mg/L
MIC Coagulase Negative Staphylococcus (GC 6257) [4, 7]: <0.5 mg/L
MIC Escherichia coli (ATCC 25922) [5]: 16 mg/L (≈ 11.2 µM)
MIC Escherichia coli (GC 4559) [5]: 16 mg/L (≈ 11.2 µM)
MIC Escherichia coli (GC 4560) [5]: <0.5 mg/L
MIC Enterococccus avium (GC 4558) [6]: 1 mg/L (≈ 0.698 µM)
MIC Enterococccus faecalis (ATCC 29212) [6]: 1 mg/L (≈ 0.698 µM)
MIC Enterococccus faecalis (GC 2691) [6]: 1 mg/L (≈ 0.698 µM)
MIC Enterococccus faecalis (GC 3059) [6]: 1 mg/L (≈ 0.698 µM)
MIC Enterococccus faecalis (GC 4552) [6]: 1 mg/L (≈ 0.698 µM)
MIC Enterococccus faecalis (GC 4553) [6]: 1 mg/L (≈ 0.698 µM)
MIC Enterococccus faecalis (GC 4554) [6]: 1 mg/L (≈ 0.698 µM)
MIC Enterococccus faecalis (GC 6189) [6]: 1 mg/L (≈ 0.698 µM)
MIC Enterococccus faecium (GC 2243) [6]: 1 mg/L (≈ 0.698 µM)
MIC Enterococccus faecium (GC 4556) [6]: 1 mg/L (≈ 0.698 µM)
MIC Enterococccus faecium (GC 4557) [6]: 1 mg/L (≈ 0.698 µM)
MIC Enterococcus faecalis (GC 2242) [6]: 1 mg/L (≈ 0.698 µM)
median effective dose (ED50), Staphylococcus aureus-SMITH (GC 4543) [2]: 0.06 mg/kg

COc1ccc(CC2OCC3OC(OC4C(CO)OC(Oc5ccc(CC6NC(=O)C(C(C)c7ccccc7)NC(=O)CNC(=O)C(CO)NC(=O)C(C(O)C7CNC(=N)N7C7OC(CO)C(O)C(O)C7O)NC(=O)C(C(O)C7CNC(=N)N7)NC6=O)cc5)C(O)C4O)C(O)C(O)C3O2)cc1 (stereo not shown) [Example 103]
MIC Streptococcus agalactiae (GC 4564) [3]: 0.5 mg/L (≈ 0.35 µM)
MIC Streptococcus pneumoniae (GC 1894) [3]: 0.12 mg/L (≈ 0.0841 µM)
MIC Streptococcus pneumoniae (GC 4565) [3]: 0.12 mg/L (≈ 0.0841 µM)
MIC Streptococcus pneumonine (ATCC 6301) [3]: 0.12 mg/L (≈ 0.0841 µM)
MIC Streptococcus pyogenes (GC 4563) [3]: 0.25 mg/L (≈ 0.175 µM)
MIC Staphylococcus aureus (ATCC 29213) [4]: 2 mg/L (≈ 1.4 µM)
MIC Staphylococcus aureus (GC 1131) [4]: 2 mg/L (≈ 1.4 µM)
MIC Staphylococcus aureus (GC 3051) [4]: 1 mg/L (≈ 0.701 µM)
MIC Staphylococcus aureus (GC 3053) [4]: 2 mg/L (≈ 1.4 µM)
MIC Staphylococcus aureus (GC 4541) [4]: 2 mg/L (≈ 1.4 µM)
MIC Staphylococcus aureus (GC 4542) [4]: 2 mg/L (≈ 1.4 µM)
MIC Staphylococcus aureus-SMITH (GC 4543) ([4]; 18 hours at 35° C.): 1 mg/L (≈ 0.701 µM)
MIC Staphylococcus aureus-SMITH (GC 4543) [4, 7]: 1 mg/L (≈ 0.701 µM)
MIC Staphylococcus aureus (GC 4544) [4]: 2 mg/L (≈ 1.4 µM)
MIC Staphylococcus aureus (GC 4545) [4]: 1 mg/L (≈ 0.701 µM)
MIC Staphylococcus haemolyticus (GC 4546) [4]: 1 mg/L (≈ 0.701 µM)
MIC Staphylococcus haemolyticus (GC 4546) [4, 7]: 1 mg/L (≈ 0.701 µM)
MIC Coagulase Negative Staphylococcus (GC 4547) [4]: 2 mg/L (≈ 1.4 µM)
MIC Coagulase Negative Staphylococcus (GC 4547) [4, 7]: 2 mg/L (≈ 1.4 µM)
MIC Coagulase Negative Staphylococcus (GC 4548) [4]: 1 mg/L (≈ 0.701 µM)
MIC Coagulase Negative Staphylococcus (GC 4548) [4, 7]: 1 mg/L (≈ 0.701 µM)
MIC Coagulase Negative Staphylococcus (GC 4549) [4]: 1 mg/L (≈ 0.701 µM)
MIC Coagulase Negative Staphylococcus (GC 4549) [4, 7]: 1 mg/L (≈ 0.701 µM)
MIC Coagulase Negative Staphylococcus (GC 4551) [4]: 2 mg/L (≈ 1.4 µM)
MIC Coagulase Negative Staphylococcus (GC 4551) [4, 7]: 2 mg/L (≈ 1.4 µM)
MIC Coagulase Negative Staphylococcus (GC 6257) [4]: 1 mg/L (≈ 0.701 µM)
MIC Coagulase Negative Staphylococcus (GC 6257) [4, 7]: 1 mg/L (≈ 0.701 µM)
MIC Escherichia coli (ATCC 25922) [5]: 64 mg/L (≈ 44.8 µM)
MIC Escherichia coli (GC 4559) [5]: 64 mg/L (≈ 44.8 µM)
MIC Escherichia coli (GC 4560) [5]: 1 mg/L (≈ 0.701 µM)
MIC Enterococccus avium (GC 4558) [6]: 8 mg/L (≈ 5.6 µM)
MIC Enterococccus faecalis (ATCC 29212) [6]: 4 mg/L (≈ 2.8 µM)
MIC Enterococccus faecalis (GC 2691) [6]: 8 mg/L (≈ 5.6 µM)
MIC Enterococccus faecalis (GC 3059) [6]: 8 mg/L (≈ 5.6 µM)
MIC Enterococccus faecalis (GC 4552) [6]: 8 mg/L (≈ 5.6 µM)
MIC Enterococccus faecalis (GC 4553) [6]: 8 mg/L (≈ 5.6 µM)
MIC Enterococccus faecalis (GC 4554) [6]: 8 mg/L (≈ 5.6 µM)
MIC Enterococccus faecalis (GC 6189) [6]: 4 mg/L (≈ 2.8 µM)
MIC Enterococccus faecium (GC 2243) [6]: 4 mg/L (≈ 2.8 µM)
MIC Enterococccus faecium (GC 4556) [6]: 4 mg/L (≈ 2.8 µM)
MIC Enterococccus faecium (GC 4557) [6]: 2 mg/L (≈ 1.4 µM)
MIC Enterococcus faecalis (GC 2242) [6]: 4 mg/L (≈ 2.8 µM)
median effective dose (ED50), Staphylococcus aureus-SMITH (GC 4543) [2]: 0.28 mg/kg
